In publication PMC10057893, “Synthesis and Biological Evaluation of New Schiff Bases Derived from 4-Amino-5-(3-fluorophenyl)-1,2,4-triazole-3-thione” (Molecules, 2023):
In brackets after ≈: the same amount, converted by molar mass. Like-named read-outs stand apart in the source and are kept apart here.

How the values were obtained:
[1] = tested on: reference strains of bacteria; assay: Positive control antibiotics, broth microdilution MIC; format: cell-based; conditions: range over the bacteria
Method: The reference antibiotics used during our studies for the selected species of reference bacteria were ciprofloxacin and cefuroxime (Merck KGaA, Darmstadt, Germany). Nystatin (Merck KGaA, Darmstadt, Germany), a known antifungal antibiotic, was used as a positive control for Candida spp.
All reference antimicrobials against bacteria or fungi were tested in a final concentration range from 0.0049 to 10 µg/mL. The tested Schiff bases were two-fold diluted in the concentration range from 0.49 to 1000 μg/mL in culture broth medium for bacteria or fungi. The medium with DMSO at the final concentrations and without the tested Schiff bases served as a control—no microbial growth inhibition was observed. […]
The minimal inhibitory concentration (MIC) was determined with the microdilution technique using 96-well polystyrene microplates (Medlab, Poland), as indicated by the European Committee on Antimicrobial Susceptibility Testing (EUCAST) guidelines. […] After the incubation, the results were spectrophotometrically determined in Biotek ELx800 (Biokom, Janki, Poland) at 600 nm (OD600). The lowest concentration of the tested compounds with the absence of bacterial growth was determined as an MIC. […]

[2] = tested on: Bacillus subtilis ATCC 6633; assay: Broth microdilution MIC/MBC, antibacterial; format: cell-based; conditions: ATCC6633
Method: (§1) The minimal inhibitory concentration (MIC) was determined with the microdilution technique using 96-well polystyrene microplates (Medlab, Poland), as indicated by the European Committee on Antimicrobial Susceptibility Testing (EUCAST) guidelines. In this process, stock solutions of each tested Schiff base dissolved in dimethylsulphoxide (DMSO, Stanlab, Poland) were used at a concentration of 50 mg/mL. Before in vitro antibacterial activity detection, the basic concentration of 1000 µg/mL of each compound was prepared with Mueller–Hinton broth medium (MHB, BioMaxima, Lublin, Poland). The experiment was prepared using Mueller–Hinton broth medium in 96-well microplates. A series of two-fold dilutions of the tested compounds in the concentration range from 0.49 to 1000 μg/mL was made in culture broth medium. Then, 2 μL of bacterial inoculum with a density of 0.5 McFarland standard was added to each well. Each well was filled with a total volume of 100 μL. Then, the microtiter plates were incubated for 18 ± 2 h at 35 °C. After the incubation, the results were spectrophotometrically determined in Biotek ELx800 (Biokom, Janki, Poland) at 600 nm (OD600). The lowest concentration of the tested compounds with the absence of bacterial growth was determined as an MIC. Three replicates for each strain and compound were performed.
(§2) After incubation, 5 μL of the broth media cultured with bacteria or fungi were removed from each well of the plates used in the MIC experiments. Next, they were culturd onto the surface of the MHA medium (BioMaxima, Lublin, Poland) plate for bacteria or MHA +2% glucose plate for yeasts. The inoculated plates were incubated in the conditions mentioned above. After incubation, a visual reading of MBC or MFC values was made. […] Three replicates for each strain and compound were performed.

[3] = tested on: Escherichia coli ATCC 25922; assay: Broth microdilution MIC/MBC, antibacterial; format: cell-based; conditions: ATCC25922, Escherichia coli ATCC 25922
Method: as §1, §2

[4] = tested on: Klebsiella pneumoniae ATCC 13883; assay: Broth microdilution MIC/MBC, antibacterial; format: cell-based; conditions: ATCC13883, Klebsiella pneumoniae ATCC 13883
Method: as §1, §2

[5] = tested on: Micrococcus luteus ATCC 10240; assay: Broth microdilution MIC/MBC, antibacterial; format: cell-based; conditions: ATCC10240
Method: as §1, §2

[6] = tested on: Pseudomonas aeruginosa ATCC 27853; assay: Broth microdilution MIC/MBC, antibacterial; format: cell-based; conditions: ATCC27853
Method: as §1, §2

[7] = tested on: Staphylococcus aureus ATCC 6538; assay: Broth microdilution MIC/MBC, antibacterial; format: cell-based; conditions: ATCC6538
Method: as §1, §2

[8] = tested on: Staphylococcus epidermidis ATCC 12228; assay: Broth microdilution MIC/MBC, antibacterial; format: cell-based; conditions: ATCC12228
Method: as §1, §2

[9] = tested on: Candida albicans ATCC 10231; assay: Broth microdilution MIC/MFC, antifungal; format: cell-based; conditions: for MIC: ATCC10231; for MFC: ATCC10231, read-out: MFC
Method: (§3) To determine the antifungal activity of the newly synthesized Schiff bases against the reference strains of Candida spp., the broth microdilution method was used according to the EUCAST [52] and Clinical and Laboratory Standards Institute (CLSI) guidelines with some modifications to the medium. Before in vitro antifungal activity detection, the basic concentration of 1000 µg/mL of each compound was prepared with Mueller–Hinton broth (BioMaxima, Lublin, Poland) supplemented with 2% glucose (MHB+2% glucose). […] The final concentrations of the Schiff bases ranged from […] to 1000 µg/mL. All the reference strains of Candida spp. used were first subcultured to the Mueller–Hinton agar medium (BioMaxima, Lublin, Poland) with 2% glucose (MHA +2% glucose) at 37 °C for 24 h. Next, 2 µL of appropriate fungal suspensions was added to each well containing 100 µL of MHB + 2% glucose and the various concentrations of the tested Schiff bases.
as §2

Candida auris CDC B11903 = assay: Broth microdilution MIC/MFC, antifungal; format: cell-based; conditions: Candidozyma auris, CDCB11903
Method: as §3, §2

[10] = tested on: Candida glabrata ATCC 15126; assay: Broth microdilution MIC/MFC, antifungal; format: cell-based; conditions: Nakaseomyces glabratus, ATCC15126
Method: as §3, §2

[11] = tested on: Candida glabrata ATCC 90030; assay: Broth microdilution MIC/MFC, antifungal; format: cell-based; conditions: Nakaseomyces glabratus, ATCC90030
Method: as §3, §2

[12] = tested on: Candida krusei ATCC 14243; assay: Broth microdilution MIC/MFC, antifungal; format: cell-based; conditions: Pichia kudriavzevii, ATCC14243
Method: as §3, §2

[13] = tested on: Candida lusitaniae ATCC 3449; assay: Broth microdilution MIC/MFC, antifungal; format: cell-based; conditions: Clavispora lusitaniae, ATCC3449
Method: as §3, §2

[14] = tested on: Candida tropicalis ATCC 1369; assay: Broth microdilution MIC/MFC, antifungal; format: cell-based; conditions: ATCC1369
Method: as §3, §2

MDA-MB-231 = assay: MTT cell viability assay; format: cell-based, human; conditions: Homo sapiens, MDA-MB-231, MTT, read-out: Cytotoxic activity IC50
Method: (§4) All the cell lines were purchased from the American Type Culture Collection (ATCC, Rockville, MD, USA) and cultured in strictly defined conditions according to the recommended ATCC protocol. The PC3 cells were cultured in RPMI 1640 (Roswell Park Memorial Institute, Biowest SAS, Nuaillé, France), while the MDA-MB-231 and HaCaT cells were maintained in DMEM (Dulbecco’s Modified Eagle’s Medium, Biowest SAS, Nuaillé, France) supplemented with 1% streptomycin and penicillin and in 10% heat-inactivated fetal bovine serum (FBS, Gibco BRL San Francisco, CA, USA) with 1% streptomycin and penicillin. The cells were incubated in a 37 °C/5% CO2 humidified incubator. They were cultured until 80–90% confluence was achieved. Then, they were harvested by treatment with 0.25% trypsin-0.02% EDTA (Gibco BRL, San Francisco, CA, USA) and used in the experiments. Untreated cells were used as a control. […] After 24 h of incubation, the culture medium was replaced with a fresh medium. […] Then, the medium was aspirated and formed formazan crystals were solubilized by adding isopropanol-DMSO mixture (1:1 vol). The intensity of the dissolved crystals was measured using a UVM 340 reader (ASYS Hitech GmbH, Eugendorf, Austria) at a wavelength of 570 nm. Cell viability was estimated by the percentage of MTT reduction in cells to which the tested compounds were added, compared to the control sample, where only the medium was added. The experiments were repeated three times. The IC50 was calculated using GraphPad Prism 9.0.0 (GraphPad Software).

PC3 = assay: MTT cell viability assay; format: cell-based, human; conditions: Homo sapiens, PC-3, PC3, MTT, read-out: Cytotoxic activity IC50
Method: as §4

MTT cell viability assay = format: cell-based; conditions: human, HaCaT cells (immortal keratinocytes), HaCaT normal cell line, read-out: Cytotoxic activity IC50 (converted)
Method: as §4

Row | SMILES | MIC [2] | MIC [3] | MIC [4] | MIC [5] | MIC [6] | MIC [7] | MIC [8] | MIC [9] | MIC (Candida auris CDC B11903) | MIC [10] | MIC [11] | MIC [12] | MIC [13] | MIC [14] | IC50 (MDA-MB-231; 72 h (table footnote)) | IC50 (MDA-MB-231; same value in µg/mL) | IC50 (PC3; 72 h (table footnote)) | IC50 (PC3; same value in µg/mL) | IC50 at 72 h (MTT cell viability assay; 72 h (table footnote)) | IC50 at 72 h (MTT cell viability assay; same value in µg/mL) | also measured
1 | O=C(O)c1cn(C2CC2)c2cc(N3CCNCC3)c(F)cc2c1=O [ciprofloxacin] | – | – | – | – | – | – | – | – | – | – | – | – | – | – | – | – | – | – | – | – | MIC [1]: 0.24 to 0.98 µg/mL (≈ 0.724 to 2.96 µM)
2 | O=[N+]([O-])c1ccc(C=Nn2c(-c3cccc(F)c3)n[nH]c2=S)cc1 [RO3, 5-(3-fluorophenyl)-4-[(4-nitrobenzylidene)amino]-2,4-dihydro-3H-1,2,4-triazole-3-thione] | > 1000 µg/mL | > 1000 µg/mL | > 1000 µg/mL | > 1000 µg/mL | > 1000 µg/mL | > 1000 µg/mL | > 1000 µg/mL | 500 µg/mL (≈ 1460 µM) | 1000 µg/mL (≈ 2910 µM) | 1000 µg/mL (≈ 2910 µM) | > 1000 µg/mL | 1000 µg/mL (≈ 2910 µM) | 1000 µg/mL (≈ 2910 µM) | 500 µg/mL (≈ 1460 µM) | > 100 µM | > 34.3 µg/mL | > 100 µM | > 34.3 µg/mL | > 100 µM | > 34.3 µg/mL | melting point: 230 to 231 °C
3 | CO/N=C(\C(=O)N[C@@H]1C(=O)N2C(C(=O)O)=C(COC(N)=O)CS[C@H]12)c1ccco1 [cefuroxime] | – | – | – | – | – | – | – | – | – | – | – | – | – | – | – | – | – | – | – | – | MIC [1]: 0.24 to 62.5 µg/mL (≈ 0.566 to 147 µM)
4 | COc1ccccc1C=Nn1c(-c2cccc(F)c2)n[nH]c1=S [RO12, 5-(3-fluorophenyl)-4-[(2-methoxybenzylidene)amino]-2,4-dihydro-3H-1,2,4-triazole-3-thione] | > 1000 µg/mL | > 1000 µg/mL | > 1000 µg/mL | > 1000 µg/mL | > 1000 µg/mL | > 1000 µg/mL | > 1000 µg/mL | 125 µg/mL (≈ 381 µM) | 500 µg/mL (≈ 1520 µM) | > 1000 µg/mL | 500 µg/mL (≈ 1520 µM) | 1000 µg/mL (≈ 3050 µM) | 500 µg/mL (≈ 1520 µM) | 500 µg/mL (≈ 1520 µM) | > 100 µM | > 38.8 µg/mL | > 100 µM | > 38.8 µg/mL | 98.1 µM | 38.1 µg/mL | MFC [9]: > 1000 µg/mL; MFC (Candida auris CDC B11903): > 1000 µg/mL; MFC [11]: > 1000 µg/mL; MFC [13]: > 1000 µg/mL; MFC [14]: > 1000 µg/mL; melting point: 140 to 143 °C
5 | Cc1ccc(C=Nn2c(-c3cccc(F)c3)n[nH]c2=S)cc1 [RO1, 5-(3-fluorophenyl)-4-[(4-methylbenzylidene)amino]-2,4-dihydro-3H-1,2,4-triazole-3-thione] | > 1000 µg/mL | > 1000 µg/mL | > 1000 µg/mL | > 1000 µg/mL | > 1000 µg/mL | > 1000 µg/mL | > 1000 µg/mL | 250 µg/mL (≈ 800 µM) | > 1000 µg/mL | > 1000 µg/mL | > 1000 µg/mL | > 1000 µg/mL | > 1000 µg/mL | > 1000 µg/mL | > 100 µM | > 31.2 µg/mL | > 100 µM | > 31.2 µg/mL | > 100 µM | > 31.2 µg/mL | MFC [9]: > 1000 µg/mL; melting point: 227 to 230 °C
6 | Cc1ccccc1C=Nn1c(-c2cccc(F)c2)n[nH]c1=S [RO10, 5-(3-fluorophenyl)-4-[(2-methylbenzylidene)amino]-2,4-dihydro-3H-1,2,4-triazole-3-thione] | > 1000 µg/mL | > 1000 µg/mL | > 1000 µg/mL | > 1000 µg/mL | > 1000 µg/mL | 125 µg/mL (≈ 400 µM) | 1000 µg/mL (≈ 3200 µM) | 500 µg/mL (≈ 1600 µM) | 1000 µg/mL (≈ 3200 µM) | 500 µg/mL (≈ 1600 µM) | 500 µg/mL (≈ 1600 µM) | > 1000 µg/mL | > 1000 µg/mL | 500 µg/mL (≈ 1600 µM) | > 100 µM | > 31.2 µg/mL | > 100 µM | > 31.2 µg/mL | > 100 µM | > 31.2 µg/mL | MBC [7]: > 1000 µg/mL; MFC [9]: > 1000 µg/mL; MFC [10]: > 1000 µg/mL; MFC [11]: > 1000 µg/mL; MFC [14]: > 1000 µg/mL; melting point: 223 to 224 °C
